# Results as given in ChEMBL document CHEMBL3885881, “DrugMatrix”.
# Species on record: Rattus norvegicus
# Test: DrugMatrix - Regimen: Daily Repeat
# Format: toxicity, organism-based, Sprague-Dawley
# Set-up: regimen Daily Repeat, gender Male, age 6-8 weeks
# Conditions: in vivo, po, route oral GAVAGE, […]; for ABSOLUTE BASOPHIL / BASOPHIL / NUCLEATED RED BLOOD CELLS / ABSOLUTE EOSINOPHIL / EOSINOPHIL / ERYTHROCYTE COUNT / HEMATOCRIT / HEMOGLOBIN / LEUKOCYTE COUNT / LYMPHOCYTE / MEAN CORPUSCULAR HEMOGLOBIN / MEAN CORPUSCULAR HEMOGLOBIN CONCENTRATION / MEAN CORPUSCULAR VOLUME / MONOCYTE / NEUTROPHIL / PLATELET COUNT / ABSOLUTE LYMPHOCYTE / ABSOLUTE MONOCYTE / ABSOLUTE SEGMENTED NEUTROPHIL: tissue Blood
# [1] = 0 mg/kg, 72 h, dose level Control, time 3 day
# [2] = 0 mg/kg, 120 h, dose level Control, time 5 day
# [3] = 0 mg/kg, dose level Control, time 28 day
# [4] = 0 mg/kg, tissue Plasma, dose level Control, time 28 day
# [5] = 23 mg/kg, 72 h, dose level Low, time 3 day
# [6] = 23 mg/kg, 72 h, tissue Plasma, dose level Low, time 3 day
# [7] = 23 mg/kg, 120 h, dose level High, time 5 day
# [8] = 23 mg/kg, 120 h, dose level Low, time 5 day
# [9] = 23 mg/kg, 120 h, tissue Plasma, dose level High, time 5 day
# [10] = 23 mg/kg, 120 h, tissue Plasma, dose level Low, time 5 day
structure (smiles),measurement,setting,value
CC1=C(CC(=O)O)c2cc(F)ccc2/C1=C\c1ccc([S+](C)[O-])cc1 (stereo not given),ABSOLUTE BASOPHIL,[1],0 CELLS/uL
same,BASOPHIL,[1],0%
same,NUCLEATED RED BLOOD CELLS,[1],0 /100WBC
same,ABSOLUTE BASOPHIL,[2],0 CELLS/uL
same,ABSOLUTE EOSINOPHIL,[2],0 CELLS/uL
same,BASOPHIL,[3],0.42%
same,EOSINOPHIL,[3],0.58%
same,ERYTHROCYTE COUNT,[3],8.06 x10E6/uL
same,HEMATOCRIT,[3],48.44%
same,HEMOGLOBIN,[3],16.34 G/DL
same,LEUKOCYTE COUNT,[3],13.04 x10E3/uL
same,LYMPHOCYTE,[3],85.12%
same,MEAN CORPUSCULAR HEMOGLOBIN,[3],20.26 pg
same,MEAN CORPUSCULAR HEMOGLOBIN CONCENTRATION,[3],33.74 G/DL
same,MEAN CORPUSCULAR VOLUME,[3],60.1 fL
same,MONOCYTE,[3],1.44%
same,NEUTROPHIL,[3],11.28%
same,PLATELET COUNT,[3],1226 x10E3/uL
same,ALANINE AMINOTRANSFERASE,[4],28.6 u/L
same,ALBUMIN,[4],3.94 G/DL
same,ALKALINE PHOSPHATASE,[4],254.6 u/L
same,ASPARTATE AMINOTRANSFERASE,[4],67.8 u/L
same,BLOOD UREA NITROGEN,[4],10.4 mg/dL
same,CHLORIDE,[4],104.6 MEQ/L
same,CHOLESTEROL,[4],57.6 mg/dL
same,CREATINE PHOSPHOKINASE,[4],224.8 u/L
same,CREATININE,[4],0.4 mg/dL
same,GLUCOSE,[4],140.6 mg/dL
same,PHOSPHORUS,[4],10.66 mg/dL
same,POTASSIUM,[4],6.58 MEQ/L
same,SODIUM,[4],148.6 MEQ/L
same,TOTAL BILIRUBIN,[4],0.24 mg/dL
same,TOTAL PROTEIN,[4],6.64 G/DL
same,ABSOLUTE BASOPHIL,[5],0 CELLS/uL
same,ABSOLUTE EOSINOPHIL,[5],0 CELLS/uL
same,ABSOLUTE LYMPHOCYTE,[5],6660 CELLS/uL
same,ABSOLUTE MONOCYTE,[5],202 CELLS/uL
same,ABSOLUTE SEGMENTED NEUTROPHIL,[5],1671.33 CELLS/uL
same,BASOPHIL,[5],0%
same,EOSINOPHIL,[5],0%
same,ERYTHROCYTE COUNT,[5],4.91 x10E6/uL
same,HEMATOCRIT,[5],31.27%
same,HEMOGLOBIN,[5],12.6 G/DL
same,LEUKOCYTE COUNT,[5],8.53 x10E3/uL
same,LYMPHOCYTE,[5],79.33%
same,MEAN CORPUSCULAR HEMOGLOBIN,[5],25.63 pg
same,MEAN CORPUSCULAR HEMOGLOBIN CONCENTRATION,[5],40.27 G/DL
same,MEAN CORPUSCULAR VOLUME,[5],63.67 fL
same,MONOCYTE,[5],2.33%
same,NEUTROPHIL,[5],18.33%
same,NUCLEATED RED BLOOD CELLS,[5],0 /100WBC
same,PLATELET COUNT,[5],1080 x10E3/uL
same,ALANINE AMINOTRANSFERASE,[6],65.67 u/L
same,ALBUMIN,[6],3.97 G/DL
same,ALKALINE PHOSPHATASE,[6],429 u/L
same,ASPARTATE AMINOTRANSFERASE,[6],75.67 u/L
same,BLOOD UREA NITROGEN,[6],14.33 mg/dL
same,CARBON DIOXIDE,[6],38.33 mmol/L
same,CHLORIDE,[6],99.33 MEQ/L
same,CHOLESTEROL,[6],87 mg/dL
same,CREATINE PHOSPHOKINASE,[6],223.33 u/L
same,CREATININE,[6],0.18 mg/dL
same,GLUCOSE,[6],181 mg/dL
same,LACTATE DEHYDROGENASE,[6],60.67 u/L
same,LIPASE,[6],16 u/L
same,PHOSPHORUS,[6],9.23 mg/dL
same,POTASSIUM,[6],4.45 MEQ/L
same,SODIUM,[6],143.57 MEQ/L
same,TOTAL BILIRUBIN,[6],0.13 mg/dL
same,TOTAL PROTEIN,[6],5.8 G/DL
same,URIC ACID,[6],0.47 mg/dL
same,BASOPHIL,[7],0.28%
same,EOSINOPHIL,[7],0.82%
same,ERYTHROCYTE COUNT,[7],7.33 x10E6/uL
same,HEMATOCRIT,[7],47.1%
same,HEMOGLOBIN,[7],14.9 G/DL
same,LEUKOCYTE COUNT,[7],7.35 x10E3/uL
same,LYMPHOCYTE,[7],79.44%
same,MEAN CORPUSCULAR HEMOGLOBIN,[7],20.4 pg
same,MEAN CORPUSCULAR HEMOGLOBIN CONCENTRATION,[7],31.66 G/DL
same,MEAN CORPUSCULAR VOLUME,[7],64.4 fL
same,MONOCYTE,[7],1.92%
same,NEUTROPHIL,[7],16.36%
same,PLATELET COUNT,[7],1405.2 x10E3/uL
same,ABSOLUTE BASOPHIL,[8],0 CELLS/uL
same,ABSOLUTE EOSINOPHIL,[8],0 CELLS/uL
same,ABSOLUTE LYMPHOCYTE,[8],5718.33 CELLS/uL
same,ABSOLUTE MONOCYTE,[8],84 CELLS/uL
same,ABSOLUTE SEGMENTED NEUTROPHIL,[8],664.33 CELLS/uL
same,BASOPHIL,[8],0%
same,EOSINOPHIL,[8],0%
same,ERYTHROCYTE COUNT,[8],5.51 x10E6/uL
same,HEMATOCRIT,[8],34.03%
same,HEMOGLOBIN,[8],13.47 G/DL
same,LEUKOCYTE COUNT,[8],6.47 x10E3/uL
same,LYMPHOCYTE,[8],88.33%
same,MEAN CORPUSCULAR HEMOGLOBIN,[8],24.47 pg
same,MEAN CORPUSCULAR HEMOGLOBIN CONCENTRATION,[8],39.6 G/DL
same,MEAN CORPUSCULAR VOLUME,[8],61.87 fL
same,MONOCYTE,[8],1.33%
same,NEUTROPHIL,[8],10.33%
same,NUCLEATED RED BLOOD CELLS,[8],0.33 /100WBC
same,PLATELET COUNT,[8],949.67 x10E3/uL
same,ALANINE AMINOTRANSFERASE,[9],32.2 u/L
same,ALBUMIN,[9],3.8 G/DL
same,ALKALINE PHOSPHATASE,[9],308.4 u/L
same,ASPARTATE AMINOTRANSFERASE,[9],75.4 u/L
same,BLOOD UREA NITROGEN,[9],8.8 mg/dL
same,CHLORIDE,[9],109 MEQ/L
same,CHOLESTEROL,[9],63.8 mg/dL
same,CREATINE PHOSPHOKINASE,[9],287.2 u/L
same,CREATININE,[9],0.42 mg/dL
same,GLUCOSE,[9],131.8 mg/dL
same,PHOSPHORUS,[9],14.88 mg/dL
same,POTASSIUM,[9],6.36 MEQ/L
same,SODIUM,[9],151.6 MEQ/L
same,TOTAL BILIRUBIN,[9],0.18 mg/dL
same,TOTAL PROTEIN,[9],6.24 G/DL
same,ALANINE AMINOTRANSFERASE,[10],67.33 u/L
same,ALBUMIN,[10],4.17 G/DL
